The values below come from patent US5198418A, “Substituted alkylamides of teicoplanin compounds” (Gruppo Lepetit S.p.A., priority 1987, dated 1993).

Experiment [1] relates to S. pyogenes C 203. Description: in vivo activity in mice infected with S. pyogenes.
Experiment [2] concerns E. coli SKF 12140. Description: in vitro antibacterial activity, MIC. The experiment is classed as cell-based. As to conditions: inoculum about 10^4 CFU/ml, 18-24 h at 37° C. How it is done: (§1) ISOSENSITEST broth, culture medium (Oxoid) and Todd-Hewitt broth, culture medium (Difco) are used for growing staphylococci and streptococci, respectively. Broth cultures are diluted so that the final inoculum is about 10^4 colony forming units/ml (CFU/ml).

The subject of experiment [3] is Strepto. faecalis ATCC 7080. Description: in vitro antibacterial activity, MIC. The experiment is classed as cell-based. As to conditions: inoculum about 10^4 CFU/ml, 18-24 h at 37° C. As to the method:
as §1

In experiment [4] the test system is Strepto. pyogenes C 203. Description: in vitro antibacterial activity, MIC. The experiment is classed as cell-based. As to conditions: inoculum about 10^4 CFU/ml, 18-24 h at 37° C. How it is done:
as §1

Experiment [5] concerns Proteus vulgaris X 19H ATCC 881. Briefly: in vitro antibacterial activity, MIC. As to conditions: inoculum about 10^4 CFU/ml, 18-24 h at 37° C. The format is cell-based. How it is done:
as §1

The test system of experiment [6] is Pseudomonas aeruginosa ATCC 10145. Briefly: in vitro antibacterial activity, MIC. The format is cell-based. As to conditions: inoculum about 10^4 CFU/ml, 18-24 h at 37° C. How it is done: as §1
The subject of experiment [7] is Staph. epidermidis ATCC 12228. Description: in vitro antibacterial activity, MIC. The format is cell-based. As to conditions: inoculum about 10^4 CFU/ml, 18-24 h at 37° C. How it is done:
as §1

Experiment [8] concerns Staph. aureus Tour. Briefly: in vitro antibacterial activity, MIC. The format is cell-based. As to conditions: inoculum about 10^4 CFU/ml, 18-24 h at 37° C. How it is done:
as §1

The subject of experiment [9] is Staph. haemoliticus 602. Briefly: in vitro antibacterial activity, MIC. The experiment is classed as cell-based. As to conditions: inoculum about 10^4 CFU/ml, 18-24 h at 37° C. As to the method:
as §1

The test system of experiment [10] is Strepto. pneumoniae UC 41. Briefly: in vitro antibacterial activity, MIC. The experiment is classed as cell-based. As to conditions: inoculum about 10^4 CFU/ml, 18-24 h at 37° C. How it is done: as §1

Take `CCCCC(NC(=O)C1NC(=O)C2NC(=O)C(NC(=O)C3NC(=O)C4NC(=O)C(Cc5ccc(c(Cl)c5)Oc5cc3cc(c5O)Oc3ccc(cc3Cl)C2O)NC(=O)C(NC(=O)OC(C)(C)C)c2ccc(O)c(c2)Oc2cc(O)cc4c2)c2ccc(O)c(c2)-c2c(O)cc(O)cc21)C(=O)NCCS` (centres unmarked) [Compound 20]: the 50% effective dose (ED50) is given as greater than 300 mg/kg in experiment [1] (route of administration p.o.) and 8.70 mg/kg in [1] (route of administration s.c).

In the case of `Cl.NC1C(=O)NC2Cc3ccc(c(Cl)c3)Oc3cc4cc(c3O)Oc3ccc(cc3Cl)C(O)C3NC(=O)C(NC(=O)C4NC(=O)C(NC2=O)c2cc(O)cc(c2)Oc2cc1ccc2O)c1ccc(O)c(c1)-c1c(O)cc(O)cc1C(C(=O)NC(CCC(=O)N1CCSCC1)C(=O)N1CCSCC1)NC3=O` (centres unmarked) [Compound 22], the MIC in experiment [2] was greater than 128 µg/mL; in experiment [3] it was 0.12 µg/mL; in experiment [4], 0.12 µg/mL; in [5], greater than 128 µg/mL; in experiment [6], greater than 128 µg/mL; in experiment [7], 0.06 µg/mL. Moreover, the MIC in experiment [8], in experiment [9] and in experiment [10] was 0.12 µg/mL in each case.
